From US20230263897A1, “CONJUGATE OF GALNAC AND SAPONIN, […] COMPOSITION COMPRISING SAID CONJUGATE AND A GALNAC-OLIGO[…]” (SAPREME TECHNOLOGIES B.V., priority 2020, published 2023)
[BNANC] = BNA^NC bridged nucleic acid sugar; {ThiolC6} = Thiol C6 linker; d = 2'-deoxy (DNA)

How the values were obtained:
ApoB RNA [1] = assay: ApoB RNA expression analysis in mouse primary hepatocytes; format: cell-based; details: alone
From the text: Cryopreserved primary mouse hepatocytes ([…] Cell Culture Technology GmbH, Germany) were thawed in hepatocyte thawing media (HTM, […] Cell Culture Technology GmbH, Germany) and washed 1× with hepatocyte wash media (HWM, […] Cell Culture Technology GmbH, Germany). Cells were re-suspended in hepatocyte plating media (HPM Cryo, […] Cell Culture Technology GmbH, Germany) at a density of approx. 0.275×10^6 cells/ml.
RNA from cells was isolated using TRI Reagent® Solution (Thermo Scientific) according to the manufacturer's instruction. Conversion into cDNA was performed using iScript™ cDNA Synthesis Kit (BioRad) using standard protocols. ApoB expression levels and levels of specific hepatocyte housekeeping genes were determined using quantitative real-time PCR assays (qRT-PCR) using iTaq™ Universal SYBR® Green Supermix (BioRad) and the Light Cycler 480 (Roche Diagnostics, Rotkreuz, Switzerland) with specific DNA primers, listed in Table A4. Analysis was done by the ΔCt method to determine ApoB expression relative to 2 hepatocyte-specific housekeeping control mRNAs. Each analysis reaction was performed in triplicate.

ApoB RNA [2] = assay: ApoB RNA expression analysis in liver tissue of C57BL/6J mice; format: in vivo
Procedure: (§1) • Dose administration and in-life phase. Per group, 8 C57BL/6J male mice for treatment groups and 14 in vehicle control group, approximately 6-7 weeks at arrival and 8-9 weeks at dosing, were dosed. The compounds, formulated in PBS or PBS alone (vehicle) according to Table A5, were dosed at 5 ml/kg in the tail vain (intravenously, iv), with dose volumes corresponding to the individual bodyweights. Where applicable, trivalent GalNAc-SO1861-EMCH was co-administered at 5 ml/kg in the tail vain (iv) right after the trivalent GalNAc-ApoB conjugate. Animals were weighed weekly and clinical observations were performed 2-3 times daily within the first 48 hrs, and at least once daily thereafter until study end. • Sampling of serum, liver, and kidney tissue. […] One half of the liver and one kidney was frozen and used for tissue RNA analysis.
The mRNA was isolated from frozen liver tissue using TRzol® Reagent (Thermo Scientific) according to the manufacturer's instruction. Conversion into cDNA was performed using Script™ cDNA Synthesis Kit (BioRad). ApoB expression levels and levels of specific liver housekeeping genes were determined using quantitative real-time PCR assays (qRT-PCR) using iTaq™ Universal SYBR® Green Supermix (BioRad) and the Light Cycler 480 (Roche Diagnostics, Rotkreuz, Switzerland) with specific DNA primers, listed in Table A5. Analysis was done by the ΔCt method to determine ApoB expression relative to 2 liver-specific housekeeping control mRNAs. Each analysis reaction was performed in triplicate.

LDL-cholesterol = assay: Serum LDL-cholesterol analysis in C57BL/6J mice; format: in vivo
Procedure: as §1
LDL-cholesterol was measured in mouse serum, using an LDL-cholesterol specific two-step AU480 assay kit, respectively, from Beckman Coulter, with a photometric measurement according to the manufacturer's instructions.

[3] = In vivo tolerability (clinical observations, body weight) in C57BL/6J mice; details: doses and dose regimen of Table A5, iv, up to 336 hrs
Procedure: During the study period, ALT levels for vehicle mice ranged from an average 47 to 61 U/L per group (n=6 animals for vehicle).
as §1

With “ApoB #02: murine and human sequence-compatible ApoB BNA(NC) antisense oligo 5′-GCattggtatTCA-3′ [SEQ ID NO: 12] (antisense GCATTGGTATTCA; sugars from the 5' end [BNANC]2 d8 [BNANC]3, all phosphorothioate, 5' {ThiolC6}, methylation of C not given here)” the IC50 (ApoB RNA [1]; 72 hrs, read-out: IC50 ApoB RNA down-modulation) was 20 nM, the “fold less potent in ApoB RNA down-modulation than (GalNAc)3-ApoB #02 combined with SO1861-EMCH or (GalNAc)3-SO1861” value (ApoB RNA [1]) was 100-667 fold and the “reduction of liver ApoB RNA levels compared to vehicle” value (“reduction of liver ApoB RNA levels” below) (ApoB RNA [2]; 0.1 mg/kg iv alone, 24 hrs) was “not noticeably reduced”. For the same substance, the “reduction of liver ApoB RNA levels” value (ApoB RNA [2]; 1 mg/kg iv alone, 24 hrs) was roughly 15%, the “reduction of liver ApoB RNA levels” value (ApoB RNA [2]; 2 mg/kg iv alone, 24 hrs) was roughly 21% and the “reduction of liver ApoB RNA levels” value (ApoB RNA [2]; 2 mg/kg iv alone, 72 hrs) was 39%. For the same substance, the “reduction of liver ApoB RNA levels” value (ApoB RNA [2]; 2 mg/kg iv alone, 336 hrs) was 30%, the “reduction of serum LDL-C compared to vehicle” value (LDL-cholesterol; 0.1 mg/kg iv alone, 24 hrs) was “not noticeably reduced” and the “reduction of serum LDL-C compared to vehicle” value (LDL-cholesterol; 1 mg/kg iv alone, 24 hrs) was “not noticeably reduced”. For the same substance, the “reduction of serum LDL-C compared to vehicle” value (LDL-cholesterol; 2 mg/kg iv alone, 24 hrs) was “not noticeably reduced”, the “reduction of serum LDL-C compared to vehicle” value (LDL-cholesterol; 2 mg/kg iv alone, 72 hrs) was 50% and the “reduction of serum LDL-C” value (LDL-cholesterol; 2 mg/kg iv alone, 336 hrs) was 40%. The “tolerability (clinical observations, adverse findings)” value [3] was “well tolerated”.
